Source: patent US9993449B2, “(S)-3-amino-4-(difluoromethylenyl)cyclopent-1-ene-1-carboxylic acid, and related compounds as GABA aminotransferase inactivators for the treatment of epilepsy, addiction and hepatocellular carcinoma” (NORTHWESTERN UNIVERSITY, priority 2015, dated 2018)
Counter-ions that a name gives are not always drawn.

How the values were obtained:
CYP1A = biological target: T1, CYP1A (Homo sapiens, UniProt P05177); assay: CYP1A inhibition (HLM, phenacetin substrate); format: in vitro ADME; conditions: 10 μM, 10 min at 37° C.
T1 construct: tissue Eurofins Panlabs; host or cells: human liver microsomes
T1 sequence (P05177 1-516): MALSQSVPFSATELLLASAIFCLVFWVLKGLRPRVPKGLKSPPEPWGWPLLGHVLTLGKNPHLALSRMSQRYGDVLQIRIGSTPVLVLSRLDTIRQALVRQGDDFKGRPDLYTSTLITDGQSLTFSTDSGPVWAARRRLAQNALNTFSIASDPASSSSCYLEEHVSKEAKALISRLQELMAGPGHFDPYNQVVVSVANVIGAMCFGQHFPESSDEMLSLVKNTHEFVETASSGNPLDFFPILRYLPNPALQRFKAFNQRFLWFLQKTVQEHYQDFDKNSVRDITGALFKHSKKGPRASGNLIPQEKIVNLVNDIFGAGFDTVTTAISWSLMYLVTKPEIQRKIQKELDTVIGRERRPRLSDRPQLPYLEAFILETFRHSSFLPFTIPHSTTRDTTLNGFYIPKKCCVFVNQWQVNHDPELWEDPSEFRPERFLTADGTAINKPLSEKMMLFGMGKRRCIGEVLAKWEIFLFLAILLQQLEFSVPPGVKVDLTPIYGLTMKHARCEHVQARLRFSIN
Protocol: (§1) Inhibition of Microsomal Cytochromes P450. The experiments were performed by Eurofins Panlabs (Redmond, Wash. 98052, USA). CYP1A inhibition (HLM, phenacetin substrate), CYP2B6 inhibition (HLM, bupropion substrate), CYP2C8 inhibition (HLM, paclitaxel substrate), CYP2C9 inhibition (HLM, diclofenac substrate), CYP2C19 inhibition (HLM, omeprazole substrate), CYP2D6 inhibition (HLM, dextromethorphan substrate), and CYP3A inhibition (HLM, midazolam and testosterone substrates) were tested. The test concentration was 10 μM. The incubation time was 10 min at 37° C. The detection method was by HPLC-MS/MS. The experiments were duplicated, and the % inhibition of the control values was averaged (FIG. 8).

CYP2B6 = biological target: T2, CYP2B6 (Homo sapiens, UniProt P20813); assay: CYP2B6 inhibition (HLM, bupropion substrate); format: in vitro ADME; conditions: 10 μM, 10 min at 37° C.
T2 construct: tissue Eurofins Panlabs; host or cells: human liver microsomes
T2 sequence (P20813 1-491): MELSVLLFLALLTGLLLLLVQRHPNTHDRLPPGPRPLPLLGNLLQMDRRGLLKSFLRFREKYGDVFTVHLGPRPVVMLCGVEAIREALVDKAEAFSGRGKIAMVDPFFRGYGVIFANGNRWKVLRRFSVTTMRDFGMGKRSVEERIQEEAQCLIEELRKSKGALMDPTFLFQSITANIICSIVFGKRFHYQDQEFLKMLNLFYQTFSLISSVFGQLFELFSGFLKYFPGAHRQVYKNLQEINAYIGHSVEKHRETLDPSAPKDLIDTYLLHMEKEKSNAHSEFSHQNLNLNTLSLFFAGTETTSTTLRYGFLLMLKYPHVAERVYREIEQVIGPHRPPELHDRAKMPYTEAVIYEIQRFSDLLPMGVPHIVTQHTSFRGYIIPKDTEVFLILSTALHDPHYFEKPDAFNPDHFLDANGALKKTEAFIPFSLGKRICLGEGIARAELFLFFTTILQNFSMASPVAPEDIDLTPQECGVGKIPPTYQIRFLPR
Protocol: as §1

hERG channel = biological target: T3, hERG channel (Homo sapiens, UniProt Q12809); assay: Inhibition of the hERG channel (automated whole-cell patch clamp, hERG CHO-K1 cell line); format: cell-based; conditions: 0.1 μM, 1 μM, and 10 μM; 5 min at room temperature
T3 construct: host or cells: CHO-K1
T3 sequence (Q12809 whole entry): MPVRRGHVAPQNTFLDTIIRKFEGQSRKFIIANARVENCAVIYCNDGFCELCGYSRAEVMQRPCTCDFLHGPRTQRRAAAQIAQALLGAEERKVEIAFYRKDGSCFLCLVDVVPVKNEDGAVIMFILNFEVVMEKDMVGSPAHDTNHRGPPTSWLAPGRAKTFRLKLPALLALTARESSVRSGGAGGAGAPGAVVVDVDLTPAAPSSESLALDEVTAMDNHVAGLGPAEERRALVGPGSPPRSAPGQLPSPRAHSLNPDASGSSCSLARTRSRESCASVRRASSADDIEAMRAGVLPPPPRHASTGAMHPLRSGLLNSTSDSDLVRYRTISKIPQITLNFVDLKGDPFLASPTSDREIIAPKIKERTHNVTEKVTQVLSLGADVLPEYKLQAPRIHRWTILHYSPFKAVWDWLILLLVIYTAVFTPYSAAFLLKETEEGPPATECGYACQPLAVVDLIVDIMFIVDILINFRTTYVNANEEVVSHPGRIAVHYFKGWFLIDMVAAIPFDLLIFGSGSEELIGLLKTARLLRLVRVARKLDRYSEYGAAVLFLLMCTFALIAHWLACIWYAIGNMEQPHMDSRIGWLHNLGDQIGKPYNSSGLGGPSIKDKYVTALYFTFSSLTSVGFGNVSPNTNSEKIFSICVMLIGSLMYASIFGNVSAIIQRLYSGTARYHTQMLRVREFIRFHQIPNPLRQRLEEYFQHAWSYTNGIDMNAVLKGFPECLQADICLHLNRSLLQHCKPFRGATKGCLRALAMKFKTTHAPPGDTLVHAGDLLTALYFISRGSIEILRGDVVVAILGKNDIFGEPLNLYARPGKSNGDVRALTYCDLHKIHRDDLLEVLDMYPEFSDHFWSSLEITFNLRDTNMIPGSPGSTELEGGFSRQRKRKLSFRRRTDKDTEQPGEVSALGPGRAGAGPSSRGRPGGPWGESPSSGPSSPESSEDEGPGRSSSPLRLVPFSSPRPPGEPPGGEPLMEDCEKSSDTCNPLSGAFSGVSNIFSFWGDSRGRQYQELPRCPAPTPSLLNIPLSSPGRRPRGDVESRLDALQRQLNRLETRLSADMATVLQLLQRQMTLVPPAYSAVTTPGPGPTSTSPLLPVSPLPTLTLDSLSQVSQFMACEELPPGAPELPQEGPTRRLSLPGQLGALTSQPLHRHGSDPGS
Protocol: Inhibition of the hERG Channel. The experiments were performed by Eurofins Panlabs (Redmond, Wash. 98052, USA). hERG CHO-K1 cell line was used. The test concentrations were 0.1 μM, 1 μM, and 10 μM. The incubation time was 5 min at room temperature, cumulatively. The detection method used an automated whole-cell patch clamp. The experiments were duplicated, and the % inhibition of the tail current was averaged (FIG. 7).

[1] = Metabolic stability in human liver microsomes (LC-MS/MS); format: in vitro ADME; conditions: for 90 min
Protocol: This was accomplished by incubating 1 with the microsomes and monitoring its disappearance with time using LC-MS/MS. Terfenadine was run in similar condition as a positive control.

CYP2D6 = biological target: T4, CYP2D6 (Homo sapiens, UniProt P10635); assay: CYP2D6 inhibition (HLM, dextromethorphan substrate); format: in vitro ADME; conditions: 10 μM, 10 min at 37° C.
T4 construct: tissue Eurofins Panlabs; host or cells: human liver microsomes
T4 sequence (P10635 whole entry): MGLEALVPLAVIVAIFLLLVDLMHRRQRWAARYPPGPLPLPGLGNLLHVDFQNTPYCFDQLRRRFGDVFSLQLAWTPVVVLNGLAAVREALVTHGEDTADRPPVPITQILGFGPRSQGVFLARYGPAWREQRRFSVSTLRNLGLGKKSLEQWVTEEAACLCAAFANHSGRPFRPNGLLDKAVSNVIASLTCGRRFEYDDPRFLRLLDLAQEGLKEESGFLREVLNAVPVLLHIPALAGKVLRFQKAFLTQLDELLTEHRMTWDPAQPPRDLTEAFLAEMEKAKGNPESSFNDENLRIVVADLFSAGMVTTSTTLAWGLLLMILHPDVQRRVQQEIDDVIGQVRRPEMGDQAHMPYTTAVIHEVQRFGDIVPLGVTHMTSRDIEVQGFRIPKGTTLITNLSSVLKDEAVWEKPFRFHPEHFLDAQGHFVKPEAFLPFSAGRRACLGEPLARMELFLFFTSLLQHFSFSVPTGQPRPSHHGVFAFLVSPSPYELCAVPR
Protocol: as §1

striatal dopamine levels = assay: MicroPET imaging with 11C-raclopride: cocaine- or nicotine-induced dopamine elevation in freely moving rats; format: in vivo, rat
Protocol: Drug addiction results from the release of dopamine in the NAcc when an addictive substance is ingested. The effect of 1 on the release of dopamine in freely moving rats was determined using in vivo micropositron emission tomography (microPET) imaging (FIG. 10). (Dewey, S. L.; Morgan, A. E.; Ashby, C. R.; Horan, B.; Kushner, S. A.; Logan, J.; Volkow, N. D.; Fowler, J. S.; Gardner, E. L.; Brodie, J. D. Synapse 1998, 30 (2), 119-129). […] MicroPET was used to measure the dissociation of the tracer [^11C]-raclopride from dopamine receptors caused by either cocaine- or nicotine-induced increases in synaptic dopamine levels (the same images were obtained with cocaine and nicotine). When animals received cocaine (n=8) or nicotine (n=6), striatal dopamine levels were rapidly elevated. (Dewey, S. L.; Chaurasia, C. S.; Chen, C. E.; Volkow, N. D.; Clarkson, F. A.; Porter, S. P.; Straughter-Moore, R. M.; Alexoff, D. L.; Tedeschi, D.; Russo, N. B.; Fowler, J. S.; Brodie, J. D. Synapse 1997, 25 (4), 393-398). […] Therefore, 1 blocks both cocaine- and nicotine-induced elevations in dopamine.
MicroPET imaging. Adult male rats (Sprague-Dawley, 200-250 grams, n =16) were obtained from Taconic Farms. Animals were maintained on a 12/12 light-dark cycle. Scanning was performed using a Siemen's Inveon. All emission scans were corrected for attenuation. Animals received baseline microPET scans using either ^11C-raclopride or ^18FDG as described previously. (Patel, V. D.; Lee, D. E.; Alexoff, D. L.; Dewey, S. L.; Schiffer, W. K. Neuroimage 2008, 41 (3), 1051-1066.) Uptake of both radiotracers occurred while animals were awake and freely moving. Immediately prior to microPET scanning, all animals were anesthetized and maintained under isoflurane.

SMILES: N[C@H]1C=C(C(=O)O)CC1=C(F)F [Compound 1, (S)-3-Amino-4-(difluoromethylenyl)cyclopent-1-ene-1-carboxylic acid Hydrochloride]
- inhibition or induction of CYP 1A (CYP1A): does not inhibit or induce
- inhibition or induction of CYP 2B6 (CYP2B6): does not inhibit or induce
- inhibition of the activity of the hERG channel (hERG channel): does not inhibit
- metabolic stability in HLM [1]: stable
- inhibition or induction of CYP 2D6 (CYP2D6): does not inhibit or induce
- suppressing the release of dopamine in the NAcc following a cocaine or nicotine challenge, compared with CPP-115 (striatal dopamine levels): superior to CPP-115
- cocaine-induced elevations in dopamine (striatal dopamine levels; 1 given prior to cocaine, 11C-raclopride microPET): blocks
- nicotine-induced elevations in dopamine (striatal dopamine levels; 1 given prior to nicotine, 11C-raclopride microPET): blocks
